One assay deals with MCF-10A cells. Nature of the assay: [3H]-thymidine incorporation assay. Type of assay: cell-based. Conditions: Homo sapiens, 24 h, read-out: IC50 (M ± SD) in [3H]-thymidine assay (DNA synthesis). On the procedure: (§1) Following a 24 h cell treatment, the incorporation of [^3H]-thymidine into the DNA of the breast tumor and normal cells was used to measure the antiproliferative activity of Les-6287. The MCF-7, MDA-MB-231, HCC1954, and MCF-10A cells were seeded into six-well plates (density 3 × 10^5 cells/well) and cultured for 24 h. Then, they were incubated under the same conditions for the next 24 h with a growth medium containing the tested compounds and reference drug (doxorubicin) at different concentrations (1, 2.5, 5, 10, 50 µM). After 24 h, the medium was changed to a fresh one without FBS. A total of 0.5 µCi of tritium-labeled thymidine (specific activity: 7 Ci/mmol) was added to cells for 4 h. The cells were washed with 1 mL of 0.05 M Tris-HCl buffer pH 7.4 containing 0.11 M NaCl and 1 mL of 5% trichloroacetic acid (TCA). Each well was filled with 1 mL of a 0.1 M NaOH solution containing 1% SDS to complete cell lysis. After 5 min, the acquired cell lysates were put into scintillation vials and pre-filled with two milliliters of scintillation liquid. The Scintillation Counter 1900 TR, TRI-CARB (Packard, Perkin Elmer, Inc., San Jose, CA, USA) was used to record the results. The effect of compounds on DNA synthesis was expressed as % of the control (non-treated cells).
On the technique in general: Incorporation of labelled thymidine or its analogues reports DNA synthesis.

The subject of assay [1] is MCF-7 cells. In words: [3H]-thymidine incorporation assay. Particulars: Homo sapiens, MCF7; MCF-7, 24 h; read-out: IC50 (M ± SD) in [3H]-thymidine assay (DNA synthesis). The format is cell-based. On the procedure: as §1
The subject of assay [2] is MDA-MB-231 cells. Nature of the assay: [3H]-thymidine incorporation assay. Type of assay: cell-based. Conditions: Homo sapiens; MDA-MB-231, 24 h; read-out: IC50 (M ± SD) in [3H]-thymidine assay (DNA synthesis). How it is done: as §1
Assay [3] has as its system HCC1954 cells. In words: [3H]-thymidine incorporation assay. The format is cell-based. Conditions: Homo sapiens; HCC1954, 24 h; read-out: IC50 (M ± SD) in [3H]-thymidine assay (DNA synthesis). On the procedure:
as §1

Assay [4] has as its system MCF-7 cells. In words: Clonogenic assay. Particulars: for IC50: Homo sapiens, MCF7, MCF-7, 72 h exposure, 14 days culture, read-out: IC50 (M ± SD) in clonogenic assay. Type of assay: cell-based, human. How it is done: (§2) The clonogenic assay was carried out utilizing the previously published methodology. The MCF-7, MDA-MB-231, HCC1954, and MCF-10A cells (500 cells/2 mL) were seeded in a 12-well plate overnight. Afterward, studied derivatives or doxorubicin (1, 2.5, 5, 10, and 50 µM) were added to cells. The media was changed after 72 h to a compound-free one, and the cells were cultured for the following 14 days. Then, the cells were washed, fixed, and stained with 0.1% crystal violet. After washing, the plates were dried at room temperature. The colonies were recorded by ImageJ software (Version 1.30). The value of colonies in control (non-treated cells) was accepted as 100%. The effect of compounds on the colony-forming ability of cells was expressed as the percentage of colonies compared to the control.

The test system of assay [5] is MDA-MB-231 cells. In words: Clonogenic assay. Type of assay: cell-based, human. Particulars: for IC50: Homo sapiens, MDA-MB-231, 72 h exposure, 14 days culture, read-out: IC50 (M ± SD) in clonogenic assay. How it is done: as §2
The subject of assay [6] is HCC1954 cells. Nature of the assay: Clonogenic assay. The format is cell-based, human. Conditions: for IC50: Homo sapiens, HCC1954, 72 h exposure, 14 days culture, read-out: IC50 (M ± SD) in clonogenic assay. How it is done:
as §2

Assay [7] relates to ICAM-1 in MDA-MB-231 cells. In words: ICAM-1 ELISA in culture supernatants. Type of assay: cell-based, human. Particulars: for ICAM-1 concentration: 2 µM (highest dose), control 841.55 pg/mL. On the procedure: (§3) In order to determine the Beclin-1 concentration in the cell lysates, the SimpleStep ELISA (Abcam, Cambridge, UK) Kit was used. MMP-2, MMP-9, and ICAM-1 concentrations were measured in culture supernatants using high-sensitivity human SimpleStep ELISA kits (Abcam, Cambridge, UK) according to the manufacturer’s protocols. The LC3B ELISA kit (BT LAB, Shanghai, China) was used to check the protein concentration in cell lysates from analyzed breast cancer cells. The procedure for preparing the samples was shown previously.

The test system of another assay is 4T1 cells. In words: MTT assay. The format is cell-based, murine. Conditions: Mus musculus, read-out: IC50, µM (M ± SD). On the procedure:
The MCF-7 and MDA-MB-231 cells were cultured in the DMEM medium containing 10% of the FBS, HCC1954, T-47D, and 4T1 cells in the RPMI-1640 medium with the addition of 10% of the FBS, and MCF-10A cells in MEGM Mammary Epithelial Cell Growth Medium BulletKit supplemented with penicillin/streptomycin cocktail and 5% of horse serum. The cells were cultured in a […] atmosphere at 5% CO2 and 37 °C. After trypsinization, cells were counted using a Scepter 3.0 handheld automated cell counter (Millipore, Burlington, MA, USA).
The MTT test was used to assess the metabolic activity of cells treated with the investigated substances following the Sigma-Aldrich manufacturer’s instructions. Briefly, compounds were added in 100 µL of the cultural medium, and cells were incubated for the next 24 and 48 h. Doxorubicin was used as a reference drug. The DMSO was added to dissolve the crystals of formazan. We used the ThermoScientific Evolution 201 UV–VIS spectrophotometer (ThermoFisher Scientific, Waltham, MA, USA) to measure the absorbance of formazan at 570 nm. The initial value of the relative number of cells in control (under 0.1% of the DMSO) was accepted as 100%. We used GraphPad Prism Version 9 to calculate the half-maximal inhibition concentration (IC50) of the studied compounds (the concentration of the drug that reduced cell viability by 50%).
(In general: Tetrazolium dyes change colour on reduction, which living cells bring about.)

The subject of the next assay is MMP-2 in MCF-7 cells. Nature of the assay: MMP-2 ELISA in culture supernatants. The format is cell-based, human. Particulars: MCF-7, 24 h, control 610.57 pg/mL. On the procedure:
as §3
On the technique in general: ELISA stands for enzyme-linked immunosorbent assay.

The subject of assay [8] is MMP-2 in MDA-MB-231 cells. In words: MMP-2 ELISA in culture supernatants. Type of assay: cell-based, human. Conditions: MDA-MB-231, 24 h, 2 μM; control 1055.21 pg/mL. On the procedure: as §3
The test system of assay [9] is MMP-9 in MDA-MB-231 cells. In words: MMP-9 ELISA in culture supernatants. Type of assay: cell-based, human. Conditions: MDA-MB-231, 24 h, all examined doses. On the procedure:
as §3

Each structure is given as a SMILES string. Where two headings read alike, the source gives them in different places.

The term IC50 denotes the concentration needed to halve the response being measured. Turning to `O=C1CC(N2C(=O)C(=CC(Cl)=Cc3ccc([N+](=O)[O-])cc3)SC2=S)C(=O)N1c1ccc(O)cc1` (stereo not shown) [Les-6287, 1-(4-hydroxyphenyl)-3-[5-[2-chloro-3-(4-nitrophenyl)prop-2-enylidene]-4-oxo-2-thioxothiazolidine-3-yl]pyrrolidine-2,5-dione], the IC50 in the assay with MCF-10A cells worked out at 43500 ± 1160 nM; in the assay on MCF-7 cells [1] it was 2370 ± 20 nM; in the assay with MDA-MB-231 cells [2], 2320 ± 40 nM; with HCC1954 cells [3] it was 3670 ± 90 nM; with MCF-7 cells [4], 420 ± 80 nM; in the assay on MDA-MB-231 cells [5], 420 ± 110 nM. In addition, the 50% inhibitory concentration (IC50) in the assay on HCC1954 cells [6] turned out to be 430 ± 110 nM; with 4T1 cells (4T1, 24 h) it was 1.6 ± 0.14 µM; with 4T1 cells (4T1, 48 h) it was 1.62 ± 0.21 µM. In addition, the formation of colonies entry with MCF-7 cells [4] (MCF-7, compound at 1 µM) is recorded as “totally inhibited”; in the assay on MDA-MB-231 cells [5] (MDA-MB-231, compound at 1 µM), “totally inhibited”; in the assay with HCC1954 cells [6] (HCC1954, compound at 1 µM) it was “totally inhibited”. In addition, in assay [7] (MDA-MB-231), the “inhibitory effect on ICAM-1 concentration relative to doxorubicin” value is given as “almost four times stronger”. This compound also yielded an ICAM-1 concentration in assay [7] (MDA-MB-231, 24 h) of 157.25 pg/mL. Further, the “concentration of MMP-2” value in the assay on MMP-2 in MCF-7 cells (compound concentration not stated (most significant decrease)) worked out at 395.91 pg/mL; in assay [8] it was 711.74 pg/mL. Besides, the “MMP-9 concentration versus control” value in [9] is “decreased”.

Consider `COc1cccc2c1C(=O)c1c(O)c3c(c(O)c1C2=O)C[C@@](O)(C(=O)CO)C[C@@H]3O[C@H]1C[C@H](N)[C@H](O)[C@H](C)O1` [Dox, doxorubicin, reference compound], for which the IC50 with MCF-10A cells is 3190 ± 430 nM; in the assay on MCF-7 cells [1], 660 ± 130 nM; in the assay with MDA-MB-231 cells [2], 630 ± 110 nM; in the assay with HCC1954 cells [3], 1070 ± 40 nM; in the assay on MCF-7 cells [4] it was 420 ± 80 nM; with MDA-MB-231 cells [5] it was 420 ± 110 nM. The IC50 was 430 ± 110 nM in the assay on HCC1954 cells [6]; 2.37 ± 0.25 µM in the assay with 4T1 cells (4T1, 24 h); 1.98 ± 0.21 µM in the assay with 4T1 cells (4T1, 48 h). In [7] (MDA-MB-231, 24 h), this compound had an ICAM-1 concentration of 583.04 pg/mL. The “ICAM-1 concentration versus control” value in assay [7] (MDA-MB-231, 24 h, 1.0 and 1.5 µM) is “increased”. Besides, the entries for the “concentration of MMP-2” value (in the assay with MMP-2 in MCF-7 cells (2 μM); in assay [8]) were 425.40 pg/mL and 470.57 pg/mL, respectively. Also, the “MMP-9 concentration versus control” value in assay [9] was “decreased”.

Source of the values: paper PMC11352273, “The Proapoptotic Action of Pyrrolidinedione–Thiazolidinone Hybrids towards Human Breast Carcinoma Cells Does Not Depend on Their Genotype” (Cancers, 2024).
